Test results reported in ChEMBL document CHEMBL1649540, “The novel CXCR4 antagonist KRH-3955 is an orally bioavailable and extremely potent inhibitor of human immunodeficiency virus type 1 infection: comparative studies with AMD3100” (Antimicrob Agents Chemother, 2009).
pEC50, pIC50: −log10 of the molar value. Active and inactive are the calls of the source. The calls are words filed in the database; no cut-off is given here.

Columns and labels:
[1] = system: Human immunodeficiency virus 1; assay: Antiviral activity against HIV1 NL4-3 infected in human PBMC assessed as inhibition of viral p24 antigen production after 7 to 10 days by ELISA; type: functional, organism-based; conditions: Human immunodeficiency virus 1, NL4-3
[2] = system: Human immunodeficiency virus 1; assay: Antiviral activity against HIV1 X4 infected in human PBMC assessed as inhibition of viral p24 antigen production after 7 to 10 days by ELISA; type: functional, organism-based; conditions: Human immunodeficiency virus 1, X4
[3] = system: Human immunodeficiency virus 1; assay: Antiviral activity against HIV1 JRCSF infected in human PBMC assessed as inhibition of viral p24 antigen production after 7 to 10 days by ELISA; type: functional; conditions: Human immunodeficiency virus 1, JRCSF ISOLATE
[4] = system: Human immunodeficiency virus 1; assay: Antiviral activity against HIV1 NL4-3 infected in HEK293 cells assessed as inhibition of viral replication after 2 days; type: functional, organism-based; conditions: Human immunodeficiency virus 1, NL4-3, HEK293, 48 h
[5] = system: Human immunodeficiency virus 1; assay: Antiviral activity against PI-resistant HIV1 HXB2 infected in HEK293 cells assessed as inhibition of viral replication after 2 days; type: functional, organism-based; conditions: Human immunodeficiency virus 1, HXB2, HEK293, 48 h
[6] = biological target: T1, C-X-C chemokine receptor type 4 (Homo sapiens, UniProt P61073); assay: Displacement of [125I]SDF-1alpha form CXCR4 expressed in CHO cells by scintillation counting; type: cell-based
[7] = biological target: T1, C-X-C chemokine receptor type 4; assay: Displacement of [125I]SDF-1alpha form CXCR4 expressed in human MOLT4 cells by scintillation counting; type: cell-based; conditions: MOLT-4
[8] = system: Human immunodeficiency virus 1; assay: Antiviral activity against multidrug resistant HIV1 HXB2 infected in HEK293 cells assessed as inhibition of viral replication after 2 days; type: functional, organism-based; conditions: Human immunodeficiency virus 1, HXB2, HEK293, 48 h
[9] = biological target: C-C chemokine receptor type 5 (Homo sapiens) (UniProt P51681); assay: Displacement of [125I]RANTES form CCR5 expressed in CHO cells by scintillation counting; type: cell-based
[10] = biological target: C-X-C chemokine receptor type 1 (Homo sapiens) (UniProt P25024); assay: Displacement of [125I]IL8 form CXCR1 expressed in CHO cells by scintillation counting; type: cell-based
[11] = biological target: T1, C-X-C chemokine receptor type 4; assay: Antagonist activity at CXCR4 expressed in CHO cells assessed as inhibition of SDF1-alpha-induced calcium mobilization by fluorescence assay; type: functional, cell-based
[12] = biological target: T1, C-X-C chemokine receptor type 4; assay: Inhibition of Mab A80 binding to CXCR4 expressed in human MOLT4 cells by FACS analysis; type: cell-based; conditions: MOLT-4
[13] = biological target: T1, C-X-C chemokine receptor type 4; assay: Inhibition of Mab 12G5 binding to CXCR4 expressed in human MOLT4 cells at 10 nM measured post drug washout by FACS analysis; type: cell-based; conditions: MOLT-4
[14] = biological target: T1, C-X-C chemokine receptor type 4; assay: Inhibition of Mab 12G5 binding to CXCR4 expressed in human MOLT4 cells at 10 nM measured after 6 hrs post drug washout by FACS analysis; type: cell-based; conditions: MOLT-4
[15] = Oral bioavailability in Sprague-Dawley rat at 10 mg/kg administered as single dose; type: ADME, organism-based; conditions: in vivo
[16] = Clearance in Sprague-Dawley rat at 10 mg/kg, iv administered as single dose; type: ADME, organism-based; set-up: dose 10 mg/kg, route intravenous; conditions: in vivo
[17] = Cmax in Sprague-Dawley rat at 10 mg/kg, po administered as single dose; type: ADME, organism-based; set-up: dose 10 mg/kg, route oral; conditions: in vivo
[18] = system: C-X-C chemokine receptor type 4 (Homo sapiens), P61073 [H281A]; assay: (§1) Inhibition of Mab 12G5 binding to CXCR4 H281A mutant expressed in HEK293 cells; type: cell-based
[19] = biological target: C-X-C chemokine receptor type 4 (Homo sapiens, UniProt P61073, H281A); assay: as §1; type: cell-based
[20] = biological target: C-X-C chemokine receptor type 4 (Homo sapiens, UniProt P61073, I284A); assay: Inhibition of Mab 12G5 binding to CXCR4 I284A mutant expressed in HEK293 cells; type: cell-based
[21] = biological target: C-X-C chemokine receptor type 4 (Homo sapiens, UniProt P61073, H113A)
[22] = biological target: C-X-C chemokine receptor type 4 (Homo sapiens, UniProt P61073, D171A)
[23] = biological target: C-X-C chemokine receptor type 4 (Homo sapiens, UniProt P61073, D262A)
[24] = biological target: C-X-C chemokine receptor type 4 (Homo sapiens, UniProt P61073, E288A/L290A)
[25] = Tmax in Sprague-Dawley rat at 10 mg/kg, po administered as single dose; conditions: in vivo
[26] = system: C-X-C chemokine receptor type 4 (Homo sapiens), P61073 [H113A]; conditions: HEK293
[27] = system: C-X-C chemokine receptor type 4 (Homo sapiens), P61073 [D262A]; conditions: HEK293
[28] = system: C-X-C chemokine receptor type 4 (Homo sapiens), P61073 [E277A]; conditions: HEK293
C-X-C chemokine receptor type 4 (Homo sapiens), P61073 [E277A], sequence (P61073 whole entry E277A): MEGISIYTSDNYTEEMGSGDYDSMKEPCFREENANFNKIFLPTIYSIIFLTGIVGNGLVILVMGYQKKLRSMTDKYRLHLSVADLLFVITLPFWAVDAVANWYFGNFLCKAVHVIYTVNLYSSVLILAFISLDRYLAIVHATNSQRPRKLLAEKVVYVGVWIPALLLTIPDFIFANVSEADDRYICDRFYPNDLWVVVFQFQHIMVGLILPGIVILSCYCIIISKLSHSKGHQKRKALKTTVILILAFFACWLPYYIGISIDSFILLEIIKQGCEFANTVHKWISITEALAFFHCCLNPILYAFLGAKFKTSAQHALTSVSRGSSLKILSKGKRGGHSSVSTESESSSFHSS

T1 sequence (P61073 whole entry): as the sequence (P61073 whole entry E277A) above, with A277E counted along it
C-X-C chemokine receptor type 4 (Homo sapiens, UniProt P61073, D171A), sequence (P61073 whole entry D171A): as the sequence (P61073 whole entry E277A) above, with D171A, A277E counted along it
C-X-C chemokine receptor type 4 (Homo sapiens, UniProt P61073, D262A), sequence (P61073 whole entry D262A): as the sequence (P61073 whole entry E277A) above, with D262A, A277E counted along it
C-X-C chemokine receptor type 4 (Homo sapiens), P61073 [D262A], sequence (P61073 whole entry D262A): as the sequence (P61073 whole entry E277A) above, with D262A, A277E counted along it
C-X-C chemokine receptor type 4 (Homo sapiens, UniProt P61073, E288A/L290A), sequence (P61073 whole entry E288A/L290A): as the sequence (P61073 whole entry E277A) above, with A277E, E288A, L290A counted along it
C-C chemokine receptor type 5 (Homo sapiens), sequence (P51681 whole entry, looked up): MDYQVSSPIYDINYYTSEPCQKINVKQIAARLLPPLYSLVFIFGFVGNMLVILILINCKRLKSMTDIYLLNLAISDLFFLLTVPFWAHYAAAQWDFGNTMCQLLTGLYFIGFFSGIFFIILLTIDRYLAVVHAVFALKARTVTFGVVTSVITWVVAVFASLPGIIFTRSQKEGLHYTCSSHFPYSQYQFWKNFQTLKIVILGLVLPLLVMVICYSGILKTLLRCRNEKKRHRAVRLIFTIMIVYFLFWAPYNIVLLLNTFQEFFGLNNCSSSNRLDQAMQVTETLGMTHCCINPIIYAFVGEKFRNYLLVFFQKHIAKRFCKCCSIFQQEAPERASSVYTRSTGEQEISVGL
C-X-C chemokine receptor type 4 (Homo sapiens, UniProt P61073, H113A), sequence (P61073 whole entry H113A): as the sequence (P61073 whole entry E277A) above, with H113A, A277E counted along it
C-X-C chemokine receptor type 4 (Homo sapiens), P61073 [H113A], sequence (P61073 whole entry H113A): as the sequence (P61073 whole entry E277A) above, with H113A, A277E counted along it
C-X-C chemokine receptor type 4 (Homo sapiens), P61073 [H281A], sequence (P61073 whole entry H281A): as the sequence (P61073 whole entry E277A) above, with A277E, H281A counted along it
C-X-C chemokine receptor type 4 (Homo sapiens, UniProt P61073, H281A), sequence (P61073 whole entry H281A): as the sequence (P61073 whole entry E277A) above, with A277E, H281A counted along it
C-X-C chemokine receptor type 4 (Homo sapiens, UniProt P61073, I284A), sequence (P61073 whole entry I284A): as the sequence (P61073 whole entry E277A) above, with A277E, I284A counted along it
C-X-C chemokine receptor type 1 (Homo sapiens), sequence (P25024 whole entry): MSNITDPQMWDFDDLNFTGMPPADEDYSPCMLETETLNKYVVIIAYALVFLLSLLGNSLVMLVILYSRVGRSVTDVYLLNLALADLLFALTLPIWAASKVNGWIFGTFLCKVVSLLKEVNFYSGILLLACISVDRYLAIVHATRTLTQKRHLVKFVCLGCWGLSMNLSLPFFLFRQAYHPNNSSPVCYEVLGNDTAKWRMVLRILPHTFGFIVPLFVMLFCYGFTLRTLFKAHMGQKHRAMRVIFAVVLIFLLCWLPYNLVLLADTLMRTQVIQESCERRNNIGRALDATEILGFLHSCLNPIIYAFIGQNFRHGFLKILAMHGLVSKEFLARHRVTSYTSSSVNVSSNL

Work on `CCCN(CCC)CCCCN(C)Cc1ccc(CN(Cc2ncc[nH]2)Cc2nccn2C)cc1.O=C(O)C(O)C(O)C(=O)O` yielded a pEC50 [1] of 8.96, a pEC50 [2] of 9.48 and a pEC50 [3] of less than 6.70. For the same compound, the pIC50 [4] was 9.30, the pIC50 [5] was 9.15 and the Activity [6] was “Dose-dependent effect”. For the same compound, the pIC50 [6] was 9.21, the Activity [7] was “Active” and the pIC50 [8] was 9.15. For the same compound, the Activity [9] was “inactive”, the Activity [10] was “inactive” and the inhibition [11] was “Dose-dependent effect”. For the same compound, the inhibition [12] was “Dose-dependent effect”, the inhibition [13] was “Active” and the inhibition [14] was 40%. For the same compound, the bioavailability [15] was 25.6%, the clearance [16] was 65 mL/min/kg and the Cmax [17] was 86.3 ng/mL. The IC90 [18] was 248 nM, the pIC50 [19] was 7.85 and the pIC50 [20] was 8.92. For the same compound, the pIC50 [21] was 9.10, the pIC50 [22] was 8.49 and the pIC50 [23] was 8.80. The pIC50 [24] was 8.80, the Tmax [25] was 2.3 h and the IC90 [26] was 6.3 nM. It also gave an IC90 [27] of 8.1 nM and an IC90 [28] of 8.7 nM.
